Data set [1] has as its target T1, Serine/threonine-protein kinase PAK 4 (Homo sapiens, UniProt O96013). Put plainly: Inhibition of PAK4 (unknown origin) using lipid substrate at 100 nM incubated for 40 mins in presence of ATP by ADP-Glo plus luminescence kinase assay relative to control. For orientation: In ADP-Glo the light output rises with the ADP produced.
Target sequence in this assay (O96013 whole entry, looked up): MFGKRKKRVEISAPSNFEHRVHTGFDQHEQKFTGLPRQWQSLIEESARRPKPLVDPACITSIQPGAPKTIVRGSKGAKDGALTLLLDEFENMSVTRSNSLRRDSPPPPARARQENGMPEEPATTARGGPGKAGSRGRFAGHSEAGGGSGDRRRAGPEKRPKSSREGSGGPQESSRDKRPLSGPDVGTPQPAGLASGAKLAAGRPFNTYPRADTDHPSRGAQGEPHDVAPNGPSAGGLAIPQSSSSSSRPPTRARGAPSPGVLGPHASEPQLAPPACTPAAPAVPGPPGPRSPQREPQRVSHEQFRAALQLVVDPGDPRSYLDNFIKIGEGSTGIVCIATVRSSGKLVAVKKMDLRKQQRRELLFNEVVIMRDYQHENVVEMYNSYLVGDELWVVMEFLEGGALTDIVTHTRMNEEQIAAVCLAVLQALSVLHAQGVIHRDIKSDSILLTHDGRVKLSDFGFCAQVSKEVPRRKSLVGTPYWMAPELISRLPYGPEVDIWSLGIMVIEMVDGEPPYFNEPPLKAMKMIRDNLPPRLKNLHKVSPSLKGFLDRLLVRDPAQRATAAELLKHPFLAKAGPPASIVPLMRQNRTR
For data set [2], the system named is A549. Kind of data set: Antiproliferative activity against human A549 cells assessed as inhibition of cell growth incubated for 72 hrs by CCK8 assay. In kind it is functional, cell-based. As to conditions: A549, 72 h. A general note: Tetrazolium assays rely on reduction of a dye to a coloured formazan, in cell work by metabolically active cells.
The nature of data set [3]: Antiproliferative activity against HEK293T cells assessed as inhibition of cell growth incubated for 24 hrs by CCK8 assay. In kind it is toxicity, cell-based, HEK-293T. Conditions: human.
In data set [4] the test system is A549. Kind of data set: cells. Conditions: Homo sapiens, A549, 24 h.
Data set [5] has as its system A549. Put plainly: cells. As to conditions: Homo sapiens, A549, 72 h.
Data set [6] deals with T1, Serine/threonine-protein kinase PAK 4. Kind of data set: Inhibition of PAK4 (unknown origin) using lipid substrate incubated for 40 mins in presence of ATP by ADP-Glo plus luminescence kinase assay.
Target sequence in this assay (O96013 whole entry): as the sequence (O96013 whole entry, looked up) above
In data set [7] the test system is A549. Kind of data set: Induction of apoptosis in human A549 cells assessed as viable cells at 0.5 uM measured after 24 hrs by AnnexinV FITC/propidium iodide staining based flow cytometry method (reference value: 98.7 %). In kind it is functional. Conditions: read-out: Activity.
Data set [8] has as its system A549. Kind of data set: Induction of apoptosis in human A549 cells assessed as viable cells at 1 uM measured after 24 hrs by AnnexinV-FITC/propidium iodide staining based flow cytometry method (reference value: 98.7 %). Conditions: read-out: Activity. Type of data set: functional. Background: Flow cytometry measures light scatter and fluorescence of single cells or particles in a stream.

Data set [9] relates to A549. Kind of data set: Induction of apoptosis in human A549 cells assessed as viable cells at 3 uM measured after 24 hrs by AnnexinV-FITC/propidium iodide staining based flow cytometry method (reference value: 98.7 %). In kind it is functional. Conditions: read-out: Activity.
The test system of data set [10] is A549. Put plainly: Induction of apoptosis in human A549 cells assessed as early apoptotic cells at 0.5 uM measured after 24 hrs by AnnexinV-FITC/propidium iodide staining based flow cytometry method (reference value: 0.049 %). Type of data set: functional.
Data set [11] deals with A549. Kind of data set: Induction of apoptosis in human A549 cells assessed as early apoptotic cells at 1 uM measured after 24 hrs by AnnexinV-FITC/propidium iodide staining based flow cytometry method (reference value: 0.049 %). Type of data set: functional.
The subject of data set [12] is A549. Kind of data set: Induction of apoptosis in human A549 cells assessed as early apoptotic cells at 3 uM measured after 24 hrs by AnnexinV-FITC/propidium iodide staining based flow cytometry method (reference value: 0.049 %). Type of data set: functional.
Data set [13] deals with A549. Put plainly: Induction of apoptosis in human A549 cells assessed as late apoptotic cells at 0.5 uM measured after 24 hrs by AnnexinV-FITC/propidium iodide staining based flow cytometry method (reference value: 0.12 %). Type of data set: functional.
For data set [14], the system named is A549. Put plainly: Induction of apoptosis in human A549 cells assessed as late apoptotic cells at 1 uM measured after 24 hrs by AnnexinV-FITC/propidium iodide staining based flow cytometry method (reference value: 0.12 %). In kind it is functional.
Data set [15] concerns A549. Kind of data set: Induction of apoptosis in human A549 cells assessed as late apoptotic cells at 3 uM measured after 24 hrs by AnnexinV-FITC/propidium iodide staining based flow cytometry method (reference value: 0.12 %). In kind it is functional.
In data set [16] the test system is A549. Kind of data set: Induction of apoptosis in human A549 cells assessed as necrotic cells at 0.5 uM measured after 24 hrs by AnnexinV-FITC/propidium iodide staining based flow cytometry method (reference value: 1.11 %). Type of data set: functional.
Data set [17] concerns A549. Kind of data set: Induction of apoptosis in human A549 cells assessed as necrotic cells at 1 uM measured after 24 hrs by AnnexinV-FITC/propidium iodide staining based flow cytometry method (reference value: 1.11 %). In kind it is functional.
Data set [18] has as its system A549. Put plainly: Induction of apoptosis in human A549 cells assessed as necrotic cells at 3 uM measured after 24 hrs by AnnexinV-FITC/propidium iodide staining based flow cytometry method (reference value: 1.11 %). In kind it is functional.
Data set [19] relates to A549. Kind of data set: Induction of cell cycle arrest in human A549 cells assessed as accumulation of G1 phase cells at 0.5 uM measured for 24 hrs by PI staining based flow cytometric analysis (reference value: 27.5 % ). Type of data set: functional.
The subject of data set [20] is A549. Put plainly: Induction of cell cycle arrest in human A549 cells assessed as accumulation of G1 phase cells at 1 uM measured for 24 hrs by PI staining based flow cytometric analysis (reference value: 27.5 % ). In kind it is functional.
In data set [21] the test system is A549. Kind of data set: Induction of cell cycle arrest in human A549 cells assessed as accumulation of G1 phase cells at 3 uM measured for 24 hrs by PI staining based flow cytometric analysis (reference value: 27.5 % ). Type of data set: functional.
Data set [22] deals with A549. Kind of data set: Induction of cell cycle arrest in human A549 cells assessed as accumulation of S phase cells at 0.5 uM measured for 24 hrs by PI staining based flow cytometric analysis (reference value: 35.3 % ). In kind it is functional.
Data set [23] has as its system A549. Put plainly: Induction of cell cycle arrest in human A549 cells assessed as accumulation of S phase cells at 1 uM measured for 24 hrs by PI staining based flow cytometric analysis (reference value: 35.3 % ). In kind it is functional.
Data set [24] relates to A549. Put plainly: Induction of cell cycle arrest in human A549 cells assessed as accumulation of S phase cells at 3 uM measured for 24 hrs by PI staining based flow cytometric analysis (reference value: 35.3 % ). In kind it is functional.
Data set [25] relates to A549. Put plainly: Induction of cell cycle arrest in human A549 cells assessed as accumulation of G2 phase cells at 0.5 uM measured for 24 hrs by PI staining based flow cytometric analysis (reference value: 32.4 % ). In kind it is functional.
In data set [26] the test system is A549. Put plainly: Induction of cell cycle arrest in human A549 cells assessed as accumulation of G2 phase cells at 1 uM measured for 24 hrs by PI staining based flow cytometric analysis (reference value: 32.4 % ). Type of data set: functional.
In data set [27] the test system is A549. Kind of data set: Induction of cell cycle arrest in human A549 cells assessed as accumulation of G2 phase cells at 3 uM measured for 24 hrs by PI staining based flow cytometric analysis (reference value: 32.4 % ). In kind it is functional.

Here are results for 22 compounds from ChEMBL document CHEMBL5390248, “Design, synthesis and anticancer activity evaluation of 4-(3-1H-indazolyl)amino quinazoline derivatives as PAK4 inhibitors” (Bioorg Med Chem, 2023).

SMILES strings stand for the structures.

With `CNC[C@@H](C)NC(=O)c1nc(Nc2n[nH]c3ccccc23)c2cc(Cl)ccc2n1`, the inhibition in data set [1] was 27%.

Consider `NCCNC(=O)c1nc(Nc2n[nH]c3ccccc23)c2cc(Cl)ccc2n1`, for which, in data set [1], the inhibition turned out to be 2%.

Consider `Cc1cc(Nc2cc(Cc3ccccc3)nc(NC3CCNCC3)n2)n[nH]1`, for which, in the data set on A549 [2], the IC50 turned out to be 2530 nM.

Consider `CNCCNC(=O)c1nc(Nc2n[nH]c3ccccc23)c2cc(Cl)ccc2n1`, for which the inhibition in data set [1] was 3%.

Turning to `C[C@@H]1CN(C(=O)c2nc(Nc3n[nH]c4ccccc34)c3cc(Cl)ccc3n2)CCN1`, the inhibition in data set [1] worked out at 10%.

As for `O=C(c1nc(Nc2n[nH]c3ccccc23)c2cc(Cl)ccc2n1)N1CCNCC1`, the inhibition in [1] came out at 4%.

Consider `Cc1nc(Nc2n[nH]c3c2CN(C(=O)N[C@H](CN(C)C)c2ccccc2)C3(C)C)c2sccc2n1` [PF-03758309], for which the IC50 at 24 h in data set [3] was > 10000 nM. In data set [1], the inhibition stood at 81%. Besides, the values for the IC50 with A549 [4] and in the data set with A549 [5] were 670 nM and 20 nM, respectively.

For `O=C(NCC1CNC1)c1nc(Nc2n[nH]c3ccccc23)c2cc(Cl)ccc2n1`, the inhibition in data set [1] amounted to 15%.

Regarding `O=C(NCCO)c1nc(Nc2n[nH]c3ccccc23)c2cc(Cl)ccc2n1`, the inhibition in data set [1] was 3%.

For `C[C@H]1CN(C(=O)c2nc(Nc3n[nH]c4ccccc34)c3cc(Cl)ccc3n2)CCN1`, the inhibition in data set [1] turned out to be 3%.

For the compound `N[C@H](CNC(=O)c1nc(Nc2n[nH]c3ccccc23)c2cc(Cl)ccc2n1)Cc1ccccc1`, the IC50 at 24 h in [3] was > 10000 nM. The inhibition in data set [1] is 77%. Moreover, the IC50 in data set [6] was 9 nM; in the data set with A549 [4], 2280 nM.

Consider `CN(C)CCCNC(=O)c1nc(Nc2n[nH]c3ccccc23)c2cc(Cl)ccc2n1`, for which the inhibition in [1] is 11%.

As to `CC(C)[C@@H](N)CNC(=O)c1nc(Nc2n[nH]c3ccccc23)c2cc(Cl)ccc2n1`, the viability at 0.5 µM in the data set on A549 [7] turned out to be 81.6%. In the data set with A549 [8], the viability at 1 µM is 64.2%. In addition, the viability at 3 µM with A549 [9] amounted to 50.5%. The Activity in the data set on A549 [10] worked out at 15.1%; with A549 [11], 27%; in the data set with A549 [12], 41%; in the data set with A549 [13], 1.1%; in the data set on A549 [14] it was 4.83%; in the data set on A549 [15] it was 3.97%. In addition, the Activity is given as 2.2% in the data set on A549 [16]; 3.96% in the data set with A549 [17]; 4.6% with A549 [18]; 34.1% with A549 [19]; 45.2% in the data set with A549 [20]; 50.9% with A549 [21]. The Activity is recorded as 35% in the data set with A549 [22]; 31.2% with A549 [23]; 26% in the data set with A549 [24]; 28.9% with A549 [25]; 22.7% in the data set with A549 [26]; 21.9% in the data set with A549 [27]. In [3], the IC50 at 24 h was > 10000 nM. In [1], the inhibition came out at 73%. The values for the IC50 (in [6]; in the data set on A549 [4]) were 10 nM and 610 nM, respectively.

Turning to `N[C@@H](CNC(=O)c1nc(Nc2n[nH]c3ccccc23)c2cc(Cl)ccc2n1)Cc1ccccc1`, the inhibition in [1] stood at 75%. Further, the IC50 in data set [6] is 11 nM.

Consider `C[C@@H](N)CNC(=O)c1nc(Nc2n[nH]c3ccccc23)c2cc(Cl)ccc2n1`, for which, in data set [1], the inhibition stood at 35%.

Regarding `N[C@@H](CNC(=O)c1nc(Nc2n[nH]c3ccccc23)c2cc(Cl)ccc2n1)c1ccccc1`, the IC50 at 24 h in data set [3] was > 10000 nM. In [1], the inhibition was 78%. For the same compound, the values for the IC50 (in data set [6]; in the data set with A549 [4]) were 13 nM and 1900 nM, respectively.

Regarding `O=C(NC1CNC1)c1nc(Nc2n[nH]c3ccccc23)c2cc(Cl)ccc2n1`, the inhibition in [1] worked out at 10%.

On to `CN(C)CCNC(=O)c1nc(Nc2n[nH]c3ccccc23)c2cc(Cl)ccc2n1`, for which, in data set [1], the inhibition stood at 4%.

Consider `CC(C)[C@H](N)CNC(=O)c1nc(Nc2n[nH]c3ccccc23)c2cc(Cl)ccc2n1`, for which the inhibition in [1] turned out to be 76%. Besides, in data set [6], the half-inhibitory concentration (IC50) was 16 nM.

On to `N[C@H](CNC(=O)c1nc(Nc2n[nH]c3ccccc23)c2cc(Cl)ccc2n1)c1ccccc1`, for which the inhibition in data set [1] was found to be 70%. Moreover, the IC50 in data set [6] came out at 24 nM.

Turning to `C[C@H](N)CNC(=O)c1nc(Nc2n[nH]c3ccccc23)c2cc(Cl)ccc2n1`, in data set [1], the inhibition worked out at 25%.

With `CNC[C@H](C)NC(=O)c1nc(Nc2n[nH]c3ccccc23)c2cc(Cl)ccc2n1`, in [1], the inhibition stood at 3%.

Usually inhibition stands for the change of the read-out against control, counted positive when it falls. As a reminder, the IC50 is the concentration needed to halve the response being measured.
